Laboratory results published in ChEMBL document CHEMBL1201862, “PubChem BioAssay data set” (2004).
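Step 1: Grow cells in 96-well plates. Step 2: Expose to compound for 48 hours at 5 concentrations. Step 3: Interpolate endpoints linearly; if unreached, use highest concentration. GI50 = concentration required for 50% inhibition of growth.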 The source made the active and inactive calls. No stated cut-off is given here; in the data, active = GI50 up to about 1.1 µM and inactive = higher.

Assays:
Experiment in all cases: NCI anticancer screen, dose series, 48 h
A549 = test system: A549
MDA-MB-231 = test system: MDA-MB-231
M14 = test system: M14
Malme-3M = test system: Malme-3M
HOP-92 = test system: HOP-92
TK-10 = test system: TK-10
Hs-578T = test system: Hs-578T
PC-3 = test system: PC-3
MOLT-4 = test system: MOLT-4
DU-145 = test system: DU-145
HCC 2998 = test system: HCC 2998
A498 = test system: A498
OVCAR-3 = test system: OVCAR-3
SK-MEL-28 = test system: SK-MEL-28
NCI-H226 = test system: NCI-H226
OVCAR-4 = test system: OVCAR-4
EKVX = test system: EKVX
UO-31 = test system: UO-31
UACC-257 = test system: UACC-257
HL-60 = test system: HL-60

Structure (SMILES)	GI50 (A549)	GI50 (MDA-MB-231)	GI50 (M14)	GI50 (Malme-3M)	GI50 (HOP-92)	GI50 (TK-10)	GI50 (Hs-578T)	GI50 (PC-3)	GI50 (MOLT-4)	GI50 (DU-145)	GI50 (HCC 2998)	GI50 (A498)	GI50 (OVCAR-3)	GI50 (SK-MEL-28)	GI50 (NCI-H226)	GI50 (OVCAR-4)	GI50 (EKVX)	GI50 (UO-31)	GI50 (UACC-257)	GI50 (HL-60)
C/N=c1\sc2c(n1C)C(=O)c1ccccc1C2=O	1.93 µM (inactive)	12.2 µM (inactive)	1.5 µM (inactive)	0.331 µM (active)	10.3 µM (inactive)	14.6 µM (inactive)	2.39 µM (inactive)	3.96 µM (inactive)	5.15 µM (inactive)	1.66 µM (inactive)	7.73 µM (inactive)	15.7 µM (inactive)	3.44 µM (inactive)	1.96 µM (inactive)	2.34 µM (inactive)	5.43 µM (inactive)	10.7 µM (inactive)	7.45 µM (inactive)	1.53 µM (inactive)	–
CC(C)Oc1cc(O)c2c(c1)OCC=C2CCC(=O)O	28.1 µM (inactive)	36.8 µM (inactive)	25.9 µM (inactive)	–	20 µM (inactive)	20.3 µM (inactive)	42.2 µM (inactive)	54.6 µM (inactive)	23.8 µM (inactive)	52.5 µM (inactive)	–	21.4 µM (inactive)	41 µM (inactive)	36 µM (inactive)	15.5 µM (inactive)	39.3 µM (inactive)	17.3 µM (inactive)	24.1 µM (inactive)	20.2 µM (inactive)	20.6 µM (inactive)
Cc1ccc2[nH]/c(=N/S(=O)(=O)c3cc(C)c(Cl)cc3S)[nH]c2c1	44.2 µM (inactive)	> 100 µM (inactive)	97.7 µM (inactive)	> 100 µM (inactive)	> 100 µM (inactive)	> 100 µM (inactive)	88.3 µM (inactive)	50 µM (inactive)	25.6 µM (inactive)	> 100 µM (inactive)	> 100 µM (inactive)	52.8 µM (inactive)	91.2 µM (inactive)	45.7 µM (inactive)	–	65 µM (inactive)	31.9 µM (inactive)	57 µM (inactive)	> 100 µM (inactive)	28.8 µM (inactive)
CC(C)(C)n1[nH]c(=O)n(C(C)(C)C)c1=O	> 100 µM (inactive)	> 100 µM (inactive)	> 100 µM (inactive)	–	> 100 µM (inactive)	> 100 µM (inactive)	> 100 µM (inactive)	> 100 µM (inactive)	> 100 µM (inactive)	> 100 µM (inactive)	> 100 µM (inactive)	> 100 µM (inactive)	> 100 µM (inactive)	> 100 µM (inactive)	–	> 100 µM (inactive)	–	> 100 µM (inactive)	> 100 µM (inactive)	> 100 µM (inactive)
C=C1C(=O)O[C@H]2C[C@@H]1[C@@H](O)[C@H](O)[C@@H](C)CCCC(C)=CCC[C@@]2(C)O	35.1 µM (inactive)	28 µM (inactive)	13.6 µM (inactive)	13 µM (inactive)	12.4 µM (inactive)	14.9 µM (inactive)	18 µM (inactive)	19.9 µM (inactive)	4.84 µM (inactive)	42.7 µM (inactive)	25.3 µM (inactive)	51.2 µM (inactive)	15.1 µM (inactive)	25.6 µM (inactive)	–	21.9 µM (inactive)	54 µM (inactive)	14.8 µM (inactive)	15.2 µM (inactive)	15.1 µM (inactive)
COc1cc2cc(C(=O)N3CC(CCl)c4c3cc(N)c3ccccc43)[nH]c2c(OC)c1OC (stereo unspecified)	< 0.01 µM (active)	< 0.01 µM (active)	< 0.01 µM (active)	< 0.01 µM (active)	< 0.01 µM (active)	< 0.01 µM (active)	< 0.01 µM (active)	< 0.01 µM (active)	< 0.01 µM (active)	< 0.01 µM (active)	< 0.01 µM (active)	< 0.01 µM (active)	< 0.01 µM (active)	< 0.01 µM (active)	< 0.01 µM (active)	< 0.01 µM (active)	< 0.01 µM (active)	< 0.01 µM (active)	< 0.01 µM (active)	–
